Reference: PMC12122562, “Phase 1 studies of the indenoisoquinolines LMP776 and LMP744 in patients with solid tumors and lymphomas” (Cancer Chemotherapy and Pharmacology, 2025)

Experiments:
RAD51 = experiment: qIF of paired tumor biopsies: nuclear RAD51 foci; assay type: in vivo, human
Description: (§1) The LMP744 protocol collected pre-treatment (baseline) and on-treatment paired biopsies from patients in the expansion cohort. Core needle tumor biopsies (18-gauge) were collected and flash-frozen at point of collection per NCI SOPs (https://dctd.cancer.gov/ResearchResources/biomarkers/docs/par/SOP340507_Biopsy_Frozen.pdf) as described to preserve labile post-translational modifications such as phosphorylation. Biopsy pairs were thawed in formalin, fixed in paraffin embedded together with control tissues following NCI SOP340550 (https://dctd.cancer.gov/ResearchResources/biomarkers/DDR3/SOP340550_Biopsy_Section_Testis_Jejunum_Controls.pdf). TOP1 and TOP1cc were measured with a cocktail containing custom-conjugated rabbit monoclonal antibody anti-TOP1-DIG (Abcam, EPR5376 (2)) and mouse monoclonal antibody anti-TOP1cc (clone 1.1A [34, 35], EMD Millipore) that were detected with reporter secondary antibodies AlexaFluor-647 IgG fraction monoclonal mouse anti-digoxin (Jackson ImmunoResearch) and goat/anti-mouse AlexaFluor-488, respectively. Phosphorylated KAP1 (pKAP1, phosphorylated at S824) was measured using custom-conjugated pKAP1-pS824-DNP (Abcam, EPR5248) and detected with AlexaFluor-488 conjugated with anti-dinitrophenyl-KLH rabbit IgG Antibody Fraction (DNP-488, ThermoFisher). […]

cCasp3 = experiment: IFA of paired tumor biopsies: cCasp3 co-localized with γH2AX (apoptosis); assay type: in vivo, human; details: patient 29, MTD, C1D2
Description: as §1

pNBS1 = experiment: qIF of paired tumor biopsies: nuclear pNBS1; assay type: in vivo, human; details: 6 patients at MTD; assay values never ≥ 4% NAP
Description: as §1

TOP1cc = target: T1, TOP1cc (Homo sapiens, UniProt P11387); experiment: qIF of paired tumor biopsies: TOP1cc foci; assay type: in vivo; details: for TOP1cc: C1D2
T1 construct: paired pre-treatment and on-treatment tumor biopsies (C1D2, 2–4 h after dosing) from 6 patients receiving LMP744 at the MTD; from tissue; host or cells: core needle tumor biopsies from patients (LMP744 expansion cohort)
T1 sequence (P11387 2-765 limits assumed): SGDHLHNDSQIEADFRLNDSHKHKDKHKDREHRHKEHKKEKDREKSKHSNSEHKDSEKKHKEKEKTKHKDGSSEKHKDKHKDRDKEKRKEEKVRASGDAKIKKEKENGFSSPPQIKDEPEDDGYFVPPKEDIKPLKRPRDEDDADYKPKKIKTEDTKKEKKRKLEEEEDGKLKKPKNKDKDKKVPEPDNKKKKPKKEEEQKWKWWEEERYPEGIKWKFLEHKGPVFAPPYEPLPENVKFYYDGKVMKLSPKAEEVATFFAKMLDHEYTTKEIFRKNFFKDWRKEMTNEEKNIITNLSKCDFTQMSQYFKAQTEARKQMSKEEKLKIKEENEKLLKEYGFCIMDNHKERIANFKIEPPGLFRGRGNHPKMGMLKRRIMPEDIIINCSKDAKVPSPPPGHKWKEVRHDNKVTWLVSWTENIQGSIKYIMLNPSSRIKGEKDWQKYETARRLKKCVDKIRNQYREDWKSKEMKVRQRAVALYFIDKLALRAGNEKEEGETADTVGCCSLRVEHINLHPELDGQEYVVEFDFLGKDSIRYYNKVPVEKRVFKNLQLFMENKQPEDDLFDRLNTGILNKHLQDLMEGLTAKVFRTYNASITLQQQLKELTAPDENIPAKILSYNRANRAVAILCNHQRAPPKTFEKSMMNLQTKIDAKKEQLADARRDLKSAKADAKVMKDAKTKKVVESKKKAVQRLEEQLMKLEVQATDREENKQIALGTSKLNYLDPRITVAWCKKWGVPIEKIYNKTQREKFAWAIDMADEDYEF
Description: The LMP744 protocol collected pre-treatment (baseline) and on-treatment paired biopsies from patients in the expansion cohort. Core needle tumor biopsies (18-gauge) were collected and flash-frozen at point of collection per NCI SOPs (https://dctd.cancer.gov/ResearchResources/biomarkers/docs/par/SOP340507_Biopsy_Frozen.pdf) as described to preserve labile post-translational modifications such as phosphorylation. Biopsy pairs were thawed in formalin, fixed in paraffin embedded together with control tissues following NCI SOP340550 (https://dctd.cancer.gov/ResearchResources/biomarkers/DDR3/SOP340550_Biopsy_Section_Testis_Jejunum_Controls.pdf). TOP1 and TOP1cc were measured with a cocktail containing custom-conjugated rabbit monoclonal antibody anti-TOP1-DIG (Abcam, EPR5376 (2)) and mouse monoclonal antibody anti-TOP1cc (clone 1.1A [34, 35], EMD Millipore) that were detected with reporter secondary antibodies AlexaFluor-647 IgG fraction monoclonal mouse anti-digoxin (Jackson ImmunoResearch) and goat/anti-mouse AlexaFluor-488, respectively. Phosphorylated KAP1 (pKAP1, phosphorylated at S824) was measured using custom-conjugated pKAP1-pS824-DNP (Abcam, EPR5248) and detected with AlexaFluor-488 conjugated with anti-dinitrophenyl-KLH rabbit IgG Antibody Fraction (DNP-488, ThermoFisher). […] TOP1, γH2AX, pNBS1, and pKAP1 were measured as the percentage of DAPI-stained tumor cell nuclear area that was positive for the biomarker (% NAP); RAD51 [19] and TOP1cc was measured as a function of the percentage of nuclei with ≥ 5 foci (RAD51) or ≥ 19 foci (TOP1cc). Apoptosis was measured using a validated IFA of tumor cells positive for both cCasp3 blebbing in the cytoplasm and γH2AX in the nucleus. Anti-SLFN11 rabbit monoclonal antibody (Cell Signaling Technology, clone D8W1B) was detected by immunohistochemistry (IHC) using Bond Polymer Detection kit (Leica) and scanned in 20X widefield Aperio (Leica), and the distribution of staining intensity of tumor cell nuclei graded as 0, 1 + , 2 + or 3 + was converted into an H-score. […]

[1] = system: advanced, refractory solid tumors or lymphomas; experiment: Phase 1 trial of LMP776: tumor response (RECIST v1.1), cycles completed; assay type: in vivo, human
Description: Tumor responses were evaluated by serial CT scans according to RECIST v1.1 criteria. CT scans were performed every other cycle during the first year, then every 3 cycles after the first year. Toxicities associated with LMP776 were evaluated according to criteria specified in CTCAE version 4.0; toxicities associated with LMP744 were evaluated according to the criteria specified in CTCAE version 4.03 (on or before March 31, 2018) or version 5.0 (on or after April 1, 2018). Criteria for all versions can be found at https://ctep.cancer.gov/protocolDevelopment/electronic_applications/ctc.htm. Any patient who received a dose of either agent was considered eligible for toxicity evaluation.

SMILES | Patients with significant drug-induced increases in nuclear RAD51 (RAD51; MTD, C1D2, p = 0.0091 for group effect) | Nuclear RAD51 response (RAD51; patient 29, MTD, C1D2) | Co-localized cytoplasmic cCASP3 (cCasp3) | pNBS1 pharmacodynamic response (pNBS1) | TOP1cc, change in the biopsy cohort (TOP1cc; 6 patients at MTD, P = 0.1373) | TOP1cc (TOP1cc; patient 29, MTD) | TOP1cc (TOP1cc; patient 31, MTD) | Objective responses ([1]; RECIST v1.1, n = 34) | Best response ([1]; in vivo) | Longest duration of SD ([1]; patient 45, pancreatic cancer) [cycles]
COc1cc2c3c(n(CCCNCCO)c(=O)c2cc1OC)-c1cc2c(cc1C3=O)OCO2 [LMP744] | 4 of 6 | at least 5 % of cells with ≥ 5 foci | increase in co-localized cytoplasmic cCASP3 | failed to elicit a pNBS1 pharmacodynamic response | no significant changes | neither biomarker changed with treatment | decreased nearly to background levels | – | – | –
COc1cc2c3c(n(CCCn4ccnc4)c(=O)c2cc1OC)-c1cc2c(cc1C3=O)OCO2 [LMP776] | – | – | – | – | – | – | – | no objective responses were measured | stable disease | 9
